# Results reported in patent US20100261751A1, “METHOD FOR D[…] OF THE TWO HUMAN IMMUNODEFICIENCY VIRUS (HIV) INTEGRASE ENZYMATIC […]” (priority 2007, published 2010).
# Biological target: T1, HIV integrase (Human immunodeficiency virus type 1 group M subtype B, UniProt P04585)
# T1 construct: stored proteins (integrase, wt, 49 μM in)
# Assay: 3dQ assay: HIV integrase 3′-end processing fluorescence in vitro assay
# Assay type: biochemical
# Settings: dose response, FIG. 1
# T1 sequence (O75475 whole entry, other chains not shown): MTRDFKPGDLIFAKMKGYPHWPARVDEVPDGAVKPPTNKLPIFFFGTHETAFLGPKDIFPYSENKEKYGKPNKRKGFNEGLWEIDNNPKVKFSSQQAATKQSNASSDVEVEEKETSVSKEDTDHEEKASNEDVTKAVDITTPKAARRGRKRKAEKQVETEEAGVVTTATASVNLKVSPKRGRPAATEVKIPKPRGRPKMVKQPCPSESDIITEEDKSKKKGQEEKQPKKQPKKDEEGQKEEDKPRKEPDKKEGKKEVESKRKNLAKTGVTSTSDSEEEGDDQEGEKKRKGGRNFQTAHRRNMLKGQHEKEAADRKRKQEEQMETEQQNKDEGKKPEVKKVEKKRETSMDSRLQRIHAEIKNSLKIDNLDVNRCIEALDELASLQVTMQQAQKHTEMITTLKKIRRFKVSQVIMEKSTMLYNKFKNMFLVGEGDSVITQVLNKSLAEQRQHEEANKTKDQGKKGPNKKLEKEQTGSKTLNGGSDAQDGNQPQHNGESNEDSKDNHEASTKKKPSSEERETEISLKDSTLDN
structure (smiles),measurement,value
"O=C(O)C(=O)CC(=O)c1cccn1Cc1ccc(F)cc1 [L731,988]",inhibition of 3′-end processing (result in words),only showed a weak response
